Experimental data as given in patent US10098881B2, “Compounds” (AUTIFONY THERAPEUTICS LIMITED, priority 2011, dated 2018).

Target: T1, human Kv3.2 channels (hKv3.2) (Homo sapiens, UniProt Q96PR1)
T1 construct: expressed in transfected cells
T1 sequence (Q96PR1 1-638): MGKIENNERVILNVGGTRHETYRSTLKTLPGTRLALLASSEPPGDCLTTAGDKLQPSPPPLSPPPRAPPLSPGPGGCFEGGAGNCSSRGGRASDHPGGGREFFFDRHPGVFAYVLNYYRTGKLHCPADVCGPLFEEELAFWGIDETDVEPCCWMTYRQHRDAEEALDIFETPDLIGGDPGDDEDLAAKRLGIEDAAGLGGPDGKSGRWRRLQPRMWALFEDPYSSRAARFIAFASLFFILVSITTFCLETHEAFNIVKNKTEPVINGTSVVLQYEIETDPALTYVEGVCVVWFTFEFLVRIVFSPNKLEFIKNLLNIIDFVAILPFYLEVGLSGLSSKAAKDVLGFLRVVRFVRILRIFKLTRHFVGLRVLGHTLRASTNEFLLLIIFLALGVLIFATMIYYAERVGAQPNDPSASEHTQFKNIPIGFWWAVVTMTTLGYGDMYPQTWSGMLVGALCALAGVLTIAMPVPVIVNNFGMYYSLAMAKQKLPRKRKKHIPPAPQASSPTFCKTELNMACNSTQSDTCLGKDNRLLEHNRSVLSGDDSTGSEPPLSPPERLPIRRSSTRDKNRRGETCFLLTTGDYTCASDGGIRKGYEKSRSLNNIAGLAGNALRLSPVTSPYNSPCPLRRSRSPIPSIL
Assay: Biological Example 1: hKv3.2 whole-cell currents, IonWorks Quattro planar array electrophysiology
Type: cell-based
Conditions: hKv3.2, -15 mV voltage step
Source text: The ability of the compounds of the invention to modulate the voltage-gated potassium channel subtypes Kv3.2 or Kv3.1 may be determined using the following assay. Analogous methods may be used to investigate the ability of the compounds of the invention to modulate other channel subtypes, including Kv3.3 and Kv3.4.
To assess compound effects on human Kv3.2 channels (hKv3.2), a stable cell line expressing hKv3.2 was created by transfecting Chinese Hamster Ovary (CHO)-K1 cells with a pClH5-hKv3.2 vector. Cells were cultured in DMEM/F12 medium supplemented by 10% Foetal Bovine Serum, lx non-essential amino acids (Invitrogen) and 500 ug/ml of Hygromycin-B (Invitrogen). Cells were grown and maintained at 37° C. in a humidified environment containing 5% CO2 in air.
The day of the experiment, cells were removed from the incubator and the culture medium removed. Cells were washed with 5 ml of Dulbecco's PBS (DPBS) calcium and magnesium free and detached by the addition of 3 ml Versene (Invitrogen, Italy) followed by a brief incubation at 37° C. for 5 minutes. The flask was tapped to dislodge cells and 10 ml of DPBS containing calcium and magnesium was added to prepare a cell suspension. The cell suspension was then placed into a 15 ml centrifuge tube and centrifuged for 2 min at 1200 rpm. After centrifugation, the supernatant was removed and the cell pellet re-suspended in 4 ml of DPBS containing calcium and magnesium using a 5 ml pipette to break up the pellet. Cell suspension volume was then corrected to give a cell concentration for the assay of approximately 3 million cells per ml.
Experiments were conducted at room temperature using IonWorks Quattro™ planar array electrophysiology technology (Molecular Devices Corp.) with PatchPlate™ PPC. Stimulation protocols and data acquisition were carried out using a microcomputer (Dell Pentium 4). Planar electrode hole resistances (Rp) were determined by applying a 10 mV voltage step across each well. These measurements were performed before cell addition. […] Following this, amphotericin-B solution was added to the intracellular face of the electrode to achieve intracellular access. Cells were held at −70 mV. Leak subtraction was conducted in all experiments by applying 50 ms hyperpolarizing (10 mV) prepulses to evoke leak currents followed by a 20 ms period at the holding potential before test pulses. From the holding potential of −70 mV, a first test pulse to −15 mV was applied for 100 ms and following a further 100 ms at −70 mV, a second pulse to 40 mV was applied for 50 ms. Cells were then maintained for a further 100 ms at −100 mV and then a voltage ramp from −100 mV to 40 mV was applied over 200 ms. Test pulses protocol may be performed in the absence (pre-read) and presence (post-read) of the test compound. Pre- and post-reads may be separated by the compound addition followed by a 3 minute incubation.
The intracellular solution contained the following (in mM): K-gluconate 100, KCl 54, MgCl2 3.2, HEPES 5, adjusted to pH 7.3 with KOH. Amphotericin-B solution was prepared as […] stock solution in DMSO and diluted to a final working concentration of 0.1 mg/ml in intracellular solution.
Compounds of the invention (or reference compounds such as N-cyclohexyl-N-[(7,8-dimethyl-2-oxo-1,2-dihydro-3-quinolinyl)methyl]-N′-phenylurea were dissolved in dimethylsulfoxide (DMSO) at a stock concentration of 10 mM. These solutions were further diluted with DMSO using a Biomek FX
Each dilution (1 μL) was transferred to another compound plate and external solution containing 0.05% pluronic acid (66 μL) was added. 3.5 μL from each plate containing a compound of the invention was added and incubated with the cells during the lonWorks Quattro™ experiment. The final assay dilution was 200 and the final compound concentrations were in the range 50 μM to 50 nM.

[1] = compound 3.1 μM (concentration giving ~0.3 nA current at end of pulse)
[2] = compound 1.6 μM (concentration giving ~0.3 nA current at end of pulse)
[3] = compound 0.8 μM (concentration giving ~0.3 nA current at end of pulse)
[4] = compound 0.4 μM (concentration giving ~0.3 nA current at end of pulse)

Question: CC[C@H]1NC(=O)N(c2ccc(Oc3ccc(C#N)cc3C3CC3)nc2)C1=O [RE5, 3-cyclopropyl-4-({5-[(4R)-4-ethyl-2,5-dioxo-1-imidazolidinyl]-2-pyridinyl}oxy)benzonitrile, reference compound] was tested. Which Tauact mean [1] did it give?
Answer: The Tauact mean was 13.0 ms.

Question: With CC[C@@]1(C)NC(=O)N(c2cnc(Oc3ccc(C)c4c3C3(CC3)CO4)nc2)C1=O [Example 1, (5R)-5-ethyl-5-methyl-3-[2-(7-methylspiro[2H-benzofuran-3,1′-cyclopropane]-4-yl)oxypyrimidin-5-yl]imidazolidine-2,4-dione] as the compound, how does the Tauact mean [2] read?
Answer: Its Tauact mean is 21.3 ms.

Question: CC[C@H]1NC(=O)N(c2ccc(Oc3ccc(C)c(OC)c3)nc2)C1=O [RE1, (5R)-5-ethyl-3-(6-{[4-methyl-3-(methyloxy)phenyl]oxy}-3-pyridinyl)-2,4-imidazolidinedione, reference compound] was tested. Which Tauact mean (compound 6.25 μM (concentration giving ~0.3 nA current at end of pulse)) did it give?
Answer: Its Tauact mean is 9.9 ms.

Question: Which Tauact mean [3] does the source give for CC[C@@]1(C)NC(=O)N(c2ccc(Oc3ccc(C)c4c3C3(CC3)CO4)nc2)C1=O [Example 9, (5R)-5-ethyl-5-methyl-3-[6-(7-methylspiro[2H-benzofuran-3,1′-cyclopropane]-4-yl)oxy-3-pyridyl]imidazolidine-2,4-dione] here?
Answer: Its Tauact mean is 24.0 ms.

Question: CC[C@H]1NC(=O)N(c2cnc(Oc3ccc(C)c4c3C(C)(C)CO4)nc2)C1=O [Example 8, (5R)-5-ethyl-3-{2-[(3,3,7-trimethyl-2,3-dihydro-1-benzofuran-4-yl)oxy]-5-pyrimidinyl}-2,4-imidazolidinedione] was tested. Which Tauact mean [2] did it give?
Answer: The Tauact mean was 25.0 ms.

Question: How did the Tauact mean (compound 0.2 μM (concentration giving ~0.3 nA current at end of pulse)) turn out when CC[C@H]1NC(=O)N(c2ccc(Oc3ccc(C#N)cc3C(C)(C)C)nc2)C1=O [RE3, 3-(1,1-dimethylethyl)-4-({5-[(4R)-4-ethyl-2,5-dioxo-1-imidazolidinyl]-2-pyridinyl}oxy)benzonitrile, reference compound] was run?
Answer: Its Tauact mean is 23.0 ms.

Question: How did the Tauact mean (compound 12.5 μM (concentration giving ~0.3 nA current at end of pulse)) turn out when CC[C@@]1(C)NC(=O)N(c2ccc(Oc3ccc(C)c(OC)c3)nc2)C1=O [RE2, (5R)-5-ethyl-5-methyl-3-(6-{[4-methyl-3-(methyloxy)phenyl]oxy}-3-pyridinyl)-2,4-imidazolidinedione, reference compound] was run?
Answer: Its Tauact mean is 7.3 ms.

Question: With CC[C@H]1NC(=O)N(c2ccc(Oc3ccc(C)c4c3C3(CC3)CO4)nc2)C1=O [Example 6, (5R)-5-ethyl-3-[6-(7-methylspiro[2H-benzofuran-3,1′-cyclopropane]-4-yl)oxy-3-pyridyl]imidazolidine-2,4-dione] as the compound, how does the Tauact mean [4] read?
Answer: Its Tauact mean is 34.8 ms.

Question: Which Tauact mean (compound 25.0 μM (concentration giving ~0.3 nA current at end of pulse)) does the source give for CC[C@@]1(C)NC(=O)N(c2cnc(Oc3ccc(C)c4c3OC(F)(F)O4)nc2)C1=O [Example 3, (5R)-3-{2-[(2,2-difluoro-7-methyl-1,3-benzodioxol-4-yl)oxy]-5-pyrimidinyl}-5-ethyl-5-methyl-2,4-imidazolidinedione] here?
Answer: Its Tauact mean is 8.9 ms.

Question: Which Tauact mean [2] does the source give for Cc1ccc(Oc2ccc(N3C(=O)NC(C)(C)C3=O)cn2)c2c1OCC21CC1 [Example 10, 5,5-dimethyl-3-[6-(7-methylspiro[2H-benzofuran-3,1′-cyclopropane]-4-yl)oxy-3-pyridyl]imidazolidine-2,4-dione] here?
Answer: The Tauact mean was 17.3 ms.

Question: How did the Tauact mean [4] turn out when CC[C@H]1NC(=O)N(c2ccc(Oc3ccc(C)c4c3C(C)(C)CO4)nc2)C1=O [Example 7, (5R)-5-ethyl-3-{6-[(3,3,7-trimethyl-2,3-dihydro-1-benzofuran-4-yl)oxy]-3-pyridinyl}-2,4-imidazolidinedione] was run?
Answer: The Tauact mean was 28.0 ms.

Question: With CC[C@H]1NC(=O)N(c2ccc(Oc3ccc(C#N)c(OC(F)(F)F)c3)nc2)C1=O [RE7, 4-({5-[(4R)-4-ethyl-2,5-dioxo-1-imidazolidinyl]-2-pyridinyl}oxy)-2-[(trifluoromethyl)oxy]benzonitrile, reference compound] as the compound, how does the Tauact mean [1] read?
Answer: The Tauact mean was 10.4 ms.

Question: With CC[C@H]1NC(=O)N(c2ccc(Oc3ccc(C#N)c(C(C)C)c3)nc2)C1=O [RE4, 4-({5-[(4R)-4-ethyl-2,5-dioxo-1-imidazolidinyl]-2-pyridinyl}oxy)-2-(1-methylethyl)benzonitrile, reference compound] as the compound, how does the Tauact mean [3] read?
Answer: The Tauact mean was 9.2 ms.
